The text below walks through data of publication PMC5564600 (Oncotarget, 2017).

What all share (assay): biochemical
Common to all, as to format: binding

Assay [1] deals with T1, panel of 442 kinases (Homo sapiens, UniProt O00506).
T1 construct: purchased Ambit Biosciences (scanMAXX KINOMEscan)
The following applies: kinase YSK1; for remaining activity at 1 µM: read-out: YSK1 (% of control at 1 µM).

Assay [2] concerns the target T2, panel of 442 kinases (Homo sapiens, UniProt P10721, A829P).
T2 construct: purchased Ambit Biosciences (scanMAXX KINOMEscan)
As to conditions: kinase KIT(A829P); for remaining activity at 1 µM: read-out: % of control at 1 µM.

For assay [3], the target named is T3, panel of 442 kinases (Homo sapiens, UniProt P48729).
T3 construct: purchased Ambit Biosciences (scanMAXX KINOMEscan)
T3 sequence (P48729 whole entry): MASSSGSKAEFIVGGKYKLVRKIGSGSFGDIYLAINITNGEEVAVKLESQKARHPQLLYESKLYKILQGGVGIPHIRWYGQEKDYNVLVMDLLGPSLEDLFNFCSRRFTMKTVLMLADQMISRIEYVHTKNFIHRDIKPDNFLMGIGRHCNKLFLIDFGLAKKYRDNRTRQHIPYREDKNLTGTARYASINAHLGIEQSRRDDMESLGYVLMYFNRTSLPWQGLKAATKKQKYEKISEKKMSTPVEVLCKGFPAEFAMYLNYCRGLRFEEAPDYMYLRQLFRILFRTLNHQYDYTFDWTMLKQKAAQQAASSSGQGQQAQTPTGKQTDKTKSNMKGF
As to conditions: CSNK1A1; for remaining activity at 1 µM: read-out: % of control at 1 µM.

Assay [4] deals with T4, panel of 442 kinases (Homo sapiens, UniProt Q9H4B4).
T4 construct: purchased Ambit Biosciences (scanMAXX KINOMEscan)
T4 sequence (Q9H4B4 whole entry): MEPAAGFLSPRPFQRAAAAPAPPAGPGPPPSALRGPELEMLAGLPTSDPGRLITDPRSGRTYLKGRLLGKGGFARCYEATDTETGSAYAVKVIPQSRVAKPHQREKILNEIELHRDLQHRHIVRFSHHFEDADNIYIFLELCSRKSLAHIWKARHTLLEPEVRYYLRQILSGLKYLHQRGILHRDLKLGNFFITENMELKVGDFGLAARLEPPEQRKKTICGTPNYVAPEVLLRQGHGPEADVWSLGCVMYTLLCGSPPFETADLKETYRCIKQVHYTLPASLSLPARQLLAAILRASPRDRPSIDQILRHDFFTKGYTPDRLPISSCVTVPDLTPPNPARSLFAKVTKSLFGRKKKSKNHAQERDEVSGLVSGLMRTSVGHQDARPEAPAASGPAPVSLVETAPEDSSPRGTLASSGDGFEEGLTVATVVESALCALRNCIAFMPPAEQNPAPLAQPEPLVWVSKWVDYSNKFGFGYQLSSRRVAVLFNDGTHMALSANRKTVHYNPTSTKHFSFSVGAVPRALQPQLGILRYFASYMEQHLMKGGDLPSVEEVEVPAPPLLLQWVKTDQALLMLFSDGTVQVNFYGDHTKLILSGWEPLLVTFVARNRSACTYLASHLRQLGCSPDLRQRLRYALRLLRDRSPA
The following applies: kinase PLK3; for remaining activity at 1 µM: read-out: PLK3 (% of control at 1 µM).

Assay [5] deals with T5, panel of 442 kinases (Homo sapiens, UniProt Q9BRS2).
T5 construct: purchased Ambit Biosciences (scanMAXX KINOMEscan)
T5 sequence (Q9BRS2 1-568): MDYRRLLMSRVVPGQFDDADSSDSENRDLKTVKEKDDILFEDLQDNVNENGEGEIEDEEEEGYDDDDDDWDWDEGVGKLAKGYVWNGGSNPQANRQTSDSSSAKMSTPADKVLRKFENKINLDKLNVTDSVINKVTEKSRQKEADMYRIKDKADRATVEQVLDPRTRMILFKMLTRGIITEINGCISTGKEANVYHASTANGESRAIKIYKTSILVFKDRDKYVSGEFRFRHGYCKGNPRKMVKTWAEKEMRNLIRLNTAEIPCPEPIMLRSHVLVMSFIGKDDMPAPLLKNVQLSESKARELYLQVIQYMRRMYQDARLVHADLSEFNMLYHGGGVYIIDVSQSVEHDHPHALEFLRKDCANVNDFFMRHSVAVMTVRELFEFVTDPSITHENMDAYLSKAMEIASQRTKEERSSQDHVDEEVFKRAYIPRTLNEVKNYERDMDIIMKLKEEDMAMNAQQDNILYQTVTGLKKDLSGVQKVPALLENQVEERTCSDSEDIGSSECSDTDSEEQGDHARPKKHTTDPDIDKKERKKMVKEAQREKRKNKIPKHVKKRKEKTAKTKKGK
As to conditions: kinase RIOK1; for remaining activity at 1 µM: read-out: RIOK1 (% of control at 1 µM).

Assay [6] deals with T6, panel of 442 kinases (Homo sapiens, UniProt P07949).
T6 construct: purchased Ambit Biosciences (scanMAXX KINOMEscan)
T6 sequence (P07949 29-1114): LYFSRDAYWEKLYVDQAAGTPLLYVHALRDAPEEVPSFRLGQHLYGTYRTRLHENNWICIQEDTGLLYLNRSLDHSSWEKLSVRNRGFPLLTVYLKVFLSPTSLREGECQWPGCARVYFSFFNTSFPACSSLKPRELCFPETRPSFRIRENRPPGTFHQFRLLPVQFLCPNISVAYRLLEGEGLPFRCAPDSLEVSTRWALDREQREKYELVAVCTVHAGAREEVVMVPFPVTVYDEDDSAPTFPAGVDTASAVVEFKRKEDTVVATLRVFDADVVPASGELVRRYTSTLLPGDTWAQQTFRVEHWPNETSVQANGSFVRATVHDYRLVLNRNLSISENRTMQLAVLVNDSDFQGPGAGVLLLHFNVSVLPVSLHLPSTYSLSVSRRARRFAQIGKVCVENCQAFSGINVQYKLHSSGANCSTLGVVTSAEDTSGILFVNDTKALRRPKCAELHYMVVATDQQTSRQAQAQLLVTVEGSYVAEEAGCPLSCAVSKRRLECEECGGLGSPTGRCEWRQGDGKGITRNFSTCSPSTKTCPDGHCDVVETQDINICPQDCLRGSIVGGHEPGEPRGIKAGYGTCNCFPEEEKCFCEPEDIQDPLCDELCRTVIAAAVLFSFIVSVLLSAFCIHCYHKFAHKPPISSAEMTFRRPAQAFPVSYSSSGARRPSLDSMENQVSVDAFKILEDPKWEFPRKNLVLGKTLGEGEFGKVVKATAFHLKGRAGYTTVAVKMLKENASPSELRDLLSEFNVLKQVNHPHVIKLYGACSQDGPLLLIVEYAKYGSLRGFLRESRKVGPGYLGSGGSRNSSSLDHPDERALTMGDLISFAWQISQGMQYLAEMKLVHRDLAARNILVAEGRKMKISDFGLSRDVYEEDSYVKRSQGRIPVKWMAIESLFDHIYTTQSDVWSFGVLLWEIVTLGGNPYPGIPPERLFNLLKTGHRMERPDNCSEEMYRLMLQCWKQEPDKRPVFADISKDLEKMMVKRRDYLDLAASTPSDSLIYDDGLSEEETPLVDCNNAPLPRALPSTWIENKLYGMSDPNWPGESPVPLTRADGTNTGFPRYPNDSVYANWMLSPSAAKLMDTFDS
The following applies: kinase RET; for remaining activity at 1 µM: read-out: RET (% of control at 1 µM).

Assay [7] addresses T7, panel of 442 kinases (Homo sapiens, UniProt P49336).
T7 construct: purchased Ambit Biosciences (scanMAXX KINOMEscan)
As to conditions: CDK8; for remaining activity at 1 µM: read-out: % of control at 1 µM.

The target of assay [8] is T8, panel of 442 kinases (Homo sapiens, UniProt P29320).
T8 construct: purchased Ambit Biosciences (scanMAXX KINOMEscan)
T8 sequence (P29320 21-983): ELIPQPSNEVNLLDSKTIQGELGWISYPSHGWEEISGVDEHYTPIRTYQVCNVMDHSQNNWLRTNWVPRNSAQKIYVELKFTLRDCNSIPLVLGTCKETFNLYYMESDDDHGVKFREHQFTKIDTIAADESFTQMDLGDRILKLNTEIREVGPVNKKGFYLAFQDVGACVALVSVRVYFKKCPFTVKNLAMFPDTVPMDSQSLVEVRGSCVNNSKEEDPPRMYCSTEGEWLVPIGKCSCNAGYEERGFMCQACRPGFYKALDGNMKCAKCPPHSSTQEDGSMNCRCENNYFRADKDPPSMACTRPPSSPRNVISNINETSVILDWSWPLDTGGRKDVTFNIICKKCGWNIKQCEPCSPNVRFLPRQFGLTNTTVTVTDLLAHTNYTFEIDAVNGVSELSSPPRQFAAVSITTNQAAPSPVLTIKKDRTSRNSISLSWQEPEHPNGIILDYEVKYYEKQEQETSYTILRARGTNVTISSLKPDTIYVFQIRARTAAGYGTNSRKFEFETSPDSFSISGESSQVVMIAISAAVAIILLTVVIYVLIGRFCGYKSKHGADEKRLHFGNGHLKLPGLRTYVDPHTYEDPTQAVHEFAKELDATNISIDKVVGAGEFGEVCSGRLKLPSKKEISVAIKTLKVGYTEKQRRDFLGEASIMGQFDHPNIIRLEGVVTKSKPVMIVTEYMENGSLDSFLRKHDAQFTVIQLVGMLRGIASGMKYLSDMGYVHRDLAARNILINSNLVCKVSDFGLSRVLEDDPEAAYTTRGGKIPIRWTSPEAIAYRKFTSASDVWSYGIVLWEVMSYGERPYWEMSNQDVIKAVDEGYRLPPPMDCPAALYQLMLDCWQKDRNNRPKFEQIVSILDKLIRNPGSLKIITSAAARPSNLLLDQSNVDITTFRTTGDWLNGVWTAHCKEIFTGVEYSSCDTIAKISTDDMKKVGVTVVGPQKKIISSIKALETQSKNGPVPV
As to conditions: EPHA3; for remaining activity at 1 µM: read-out: % of control at 1 µM.

[9] abbreviates: 10 µM, read-out: % of control at 10 µM.

T2 sequence (P10721 26-976 A829P): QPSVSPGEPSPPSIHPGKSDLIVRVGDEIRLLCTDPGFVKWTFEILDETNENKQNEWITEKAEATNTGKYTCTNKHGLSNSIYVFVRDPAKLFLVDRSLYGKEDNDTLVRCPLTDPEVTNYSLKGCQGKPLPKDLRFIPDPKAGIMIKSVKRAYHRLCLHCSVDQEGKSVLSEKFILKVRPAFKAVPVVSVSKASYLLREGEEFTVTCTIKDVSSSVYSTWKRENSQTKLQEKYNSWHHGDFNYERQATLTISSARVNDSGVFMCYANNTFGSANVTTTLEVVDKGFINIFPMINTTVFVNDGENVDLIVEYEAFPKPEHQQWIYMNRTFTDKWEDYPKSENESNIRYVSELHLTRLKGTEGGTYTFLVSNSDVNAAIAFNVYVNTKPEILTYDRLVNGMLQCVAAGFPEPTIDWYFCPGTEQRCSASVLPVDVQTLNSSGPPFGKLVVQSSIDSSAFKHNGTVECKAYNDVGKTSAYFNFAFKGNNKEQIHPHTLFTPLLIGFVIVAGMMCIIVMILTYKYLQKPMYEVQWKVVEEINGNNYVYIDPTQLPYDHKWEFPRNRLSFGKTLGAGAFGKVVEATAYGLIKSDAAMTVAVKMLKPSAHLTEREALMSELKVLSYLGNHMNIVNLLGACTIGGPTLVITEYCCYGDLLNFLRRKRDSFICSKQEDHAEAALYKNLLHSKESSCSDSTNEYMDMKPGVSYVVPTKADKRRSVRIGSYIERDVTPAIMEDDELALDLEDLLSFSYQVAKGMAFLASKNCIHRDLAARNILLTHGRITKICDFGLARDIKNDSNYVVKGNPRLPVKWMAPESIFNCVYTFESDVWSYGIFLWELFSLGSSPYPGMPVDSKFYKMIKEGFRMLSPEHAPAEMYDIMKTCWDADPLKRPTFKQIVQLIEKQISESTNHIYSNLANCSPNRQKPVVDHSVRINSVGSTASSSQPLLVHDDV
T7 sequence (P49336 whole entry): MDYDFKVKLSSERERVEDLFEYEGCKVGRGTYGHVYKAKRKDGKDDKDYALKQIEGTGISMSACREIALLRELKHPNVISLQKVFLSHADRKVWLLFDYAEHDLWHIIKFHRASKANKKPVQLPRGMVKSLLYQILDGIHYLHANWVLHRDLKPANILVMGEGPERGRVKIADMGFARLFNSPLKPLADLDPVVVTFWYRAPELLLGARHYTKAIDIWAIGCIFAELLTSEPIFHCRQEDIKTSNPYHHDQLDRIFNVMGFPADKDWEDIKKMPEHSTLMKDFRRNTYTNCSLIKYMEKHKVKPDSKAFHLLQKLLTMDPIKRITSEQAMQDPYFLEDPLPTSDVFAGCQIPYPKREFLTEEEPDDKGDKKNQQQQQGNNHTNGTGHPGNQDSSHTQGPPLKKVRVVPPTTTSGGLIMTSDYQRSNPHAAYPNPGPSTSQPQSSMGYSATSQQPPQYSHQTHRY
T1 sequence (O00506 whole entry): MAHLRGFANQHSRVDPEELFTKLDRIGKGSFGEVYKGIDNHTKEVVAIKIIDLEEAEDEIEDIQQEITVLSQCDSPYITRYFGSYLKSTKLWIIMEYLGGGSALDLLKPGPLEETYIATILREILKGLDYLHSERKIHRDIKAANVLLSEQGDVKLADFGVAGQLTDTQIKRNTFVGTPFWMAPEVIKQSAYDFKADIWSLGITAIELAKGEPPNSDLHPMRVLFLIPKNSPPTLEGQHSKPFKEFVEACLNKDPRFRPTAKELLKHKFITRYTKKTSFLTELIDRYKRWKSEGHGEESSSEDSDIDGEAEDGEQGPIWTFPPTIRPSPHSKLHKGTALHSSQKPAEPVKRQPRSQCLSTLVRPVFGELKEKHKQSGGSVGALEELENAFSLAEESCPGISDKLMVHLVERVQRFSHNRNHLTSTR

For the compound `Nc1cc(C(F)(F)F)c(-c2cc(N3CCOCC3)nc(N3CCOCC3)n2)cn1` [Buparlisib], the remaining activity at 1 µM at panel of 442 kinases [1] came out at 100%; at panel of 442 kinases [2], 100%; on panel of 442 kinases [3], 88%; at panel of 442 kinases [4] it was 97%; at panel of 442 kinases [5], 89%; on panel of 442 kinases [6] it was 97%. Further, the remaining activity at 1 µM turned out to be 100% on panel of 442 kinases [7] and 96% at panel of 442 kinases [8]. Also, the remaining activity at 10 µM on panel of 442 kinases [1] (10 µM, read-out: YSK1 (% of control at 10 µM)) is 100%; on panel of 442 kinases [2] (setting [9]), 98%; on panel of 442 kinases [3] (setting [9]) it was 100%; on panel of 442 kinases [4] (10 µM, read-out: PLK3 (% of control at 10 µM)) it was 100%; at panel of 442 kinases [5] (10 µM, read-out: RIOK1 (% of control at 10 µM)), 81%; at panel of 442 kinases [6] (10 µM, read-out: RET (% of control at 10 µM)) it was 100%. The remaining activity at 10 µM on panel of 442 kinases [7] (setting [9]) and at panel of 442 kinases [8] (setting [9]) was 100% in each case.
Consider `Cn1c(=O)n(-c2ccc(C(C)(C)C#N)cc2)c2c3cc(-c4cnc5ccccc5c4)ccc3ncc21` [Dactolisib, 2-methyl-2-[4-(3-methyl-2-oxo-8-quinolin-3-yl-2,3-dihydroimidazo[4,5-c]quinolin-1-yl)-phenyl] propionitrile], for which the remaining activity at 1 µM is 100% at panel of 442 kinases [1]; 61% on panel of 442 kinases [2]; 99% on panel of 442 kinases [3]; 88% on panel of 442 kinases [4]; 66% on panel of 442 kinases [5]; 100% at panel of 442 kinases [6]. The remaining activity at 1 µM at panel of 442 kinases [7] was found to be 100%; at panel of 442 kinases [8], 63%.
For `COc1ncc(-c2ccc3nccc(-c4ccnnc4)c3c2)cc1NS(=O)(=O)c1ccc(F)cc1F` [Omipalisib], the remaining activity at 1 µM on panel of 442 kinases [1] was 91%; on panel of 442 kinases [2], 100%; on panel of 442 kinases [3], 100%; on panel of 442 kinases [4] it was 82%; on panel of 442 kinases [5], 100%; on panel of 442 kinases [6], 94%. For the same compound, the remaining activity at 1 µM on panel of 442 kinases [7] worked out at 70%; at panel of 442 kinases [8] it was 100%.
Turning to `FC(F)c1nc2ccccc2n1-c1nc(N2CCOCC2)nc(N2CCOCC2)n1` [ZSTK474, 2-(difluoromethyl)-1-[4,6-di(4-morpholinyl)-1,3,5-triazin-2-yl]-1H-benzimidazole], the remaining activity at 1 µM on panel of 442 kinases [1] amounted to 83%; at panel of 442 kinases [2], 90%; on panel of 442 kinases [3] it was 91%; on panel of 442 kinases [4], 83%; on panel of 442 kinases [5], 84%; on panel of 442 kinases [6] it was 100%. Also, the results for the remaining activity at 1 µM on panel of 442 kinases [7] and on panel of 442 kinases [8] were 80% and 93%, respectively.
